Assay results as given in ChEMBL document CHEMBL1201862, “PubChem BioAssay data set” (2004).
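Step 1: Grow cells in 96-well plates. Step 2: Expose to compound for 48 hours at 5 concentrations. Step 3: Interpolate endpoints linearly; if unreached, use highest concentration. Here, GI50 denotes the concentration required for 50% inhibition of growth.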 Activity calls are given as the source filed them. Cut-off read from the data, not from the text of the source: active = GI50 up to about 1.1 µM and inactive = higher.

Legend:
Assay in all cases: inhibition of tumour cell growth, NCI panel, 48 h
[1] = system: TK-10
[2] = system: COLO 205
[3] = system: OVCAR-5
[4] = system: T47D
[5] = system: CAKI-1
[6] = system: NCI/ADR-RES
[7] = system: UO-31
[8] = system: MOLT-4
[9] = system: A549
[10] = system: RPMI-8226
[11] = system: HT-29
[12] = system: OVCAR-3
[13] = system: SK-MEL-28
[14] = system: SN12C
[15] = system: 786-0
[16] = system: MDA-MB-231
[17] = system: SK-MEL-2
[18] = system: IGROV-1
[19] = system: MCF7
[20] = system: ACHN

Row | SMILES | GI50 [1] | GI50 [2] | GI50 [3] | GI50 [4] | GI50 [5] | GI50 [6] | GI50 [7] | GI50 [8] | GI50 [9] | GI50 [10] | GI50 [11] | GI50 [12] | GI50 [13] | GI50 [14] | GI50 [15] | GI50 [16] | GI50 [17] | GI50 [18] | GI50 [19] | GI50 [20]
1 | C=CC/C(C(=O)OC)=C(/C(=O)OC)N(CCC)CCC | > 100 µM (inactive) | 99.5 µM (inactive) | > 100 µM (inactive) | > 100 µM (inactive) | > 100 µM (inactive) | > 100 µM (inactive) | 94.8 µM (inactive) | 61.8 µM (inactive) | > 100 µM (inactive) | 41.9 µM (inactive) | > 100 µM (inactive) | 36.1 µM (inactive) | > 100 µM (inactive) | > 100 µM (inactive) | > 100 µM (inactive) | > 100 µM (inactive) | > 100 µM (inactive) | > 100 µM (inactive) | 63.2 µM (inactive) | 86.9 µM (inactive)
2 | CC1(C)OC[C@@]2([C@@H]3CC[C@@H](C3)C2(C)C)N1O | > 100 µM (inactive) | > 100 µM (inactive) | > 100 µM (inactive) | > 100 µM (inactive) | > 100 µM (inactive) | > 100 µM (inactive) |  | > 100 µM (inactive) | > 100 µM (inactive) | 79.4 µM (inactive) | > 100 µM (inactive) | > 100 µM (inactive) | 46.9 µM (inactive) | > 100 µM (inactive) | > 100 µM (inactive) | > 100 µM (inactive) | > 100 µM (inactive) | > 100 µM (inactive) | > 100 µM (inactive) | > 100 µM (inactive)
3 | CSc1c(C#N)c(S)n(-c2ccc(Cl)cc2)c(=O)c1C#N | > 100 µM (inactive) | > 100 µM (inactive) | > 100 µM (inactive) | 47.5 µM (inactive) | > 100 µM (inactive) | 39.8 µM (inactive) | 27.9 µM (inactive) | 44.2 µM (inactive) | > 100 µM (inactive) | 38.7 µM (inactive) | 99.3 µM (inactive) | > 100 µM (inactive) | > 100 µM (inactive) | > 100 µM (inactive) | > 100 µM (inactive) | > 100 µM (inactive) | > 100 µM (inactive) | 80.7 µM (inactive) | > 100 µM (inactive) | 
4 | CCCn1c2ccccc2c2ccc3c(c21)C(=O)C=CC3=O | 2.09 µM (inactive) | 2.39 µM (inactive) | > 10 µM (inactive) | 2 µM (inactive) | 2.78 µM (inactive) | 2.9 µM (inactive) | 4.06 µM (inactive) | 0.904 µM (active) | > 10 µM (inactive) | 2.12 µM (inactive) | > 10 µM (inactive) | 2.01 µM (inactive) | 2.2 µM (inactive) | 3.78 µM (inactive) | 1.84 µM (inactive) | 2.06 µM (inactive) | > 4.78 µM (inactive) | 3.31 µM (inactive) | 2.19 µM (inactive) | 1.83 µM (inactive)
5 | Cc1ccc2c(c1)C(C1Cc3c(C)cccc3C1=O)OC2=O (stereo unspecified) | > 100 µM (inactive) | > 100 µM (inactive) | > 100 µM (inactive) | > 100 µM (inactive) | > 100 µM (inactive) | 40.4 µM (inactive) | > 100 µM (inactive) | > 100 µM (inactive) | > 100 µM (inactive) | 63.2 µM (inactive) | 96.6 µM (inactive) | > 100 µM (inactive) | > 100 µM (inactive) | > 100 µM (inactive) | > 100 µM (inactive) | > 100 µM (inactive) | > 100 µM (inactive) | > 100 µM (inactive) | > 100 µM (inactive) | > 100 µM (inactive)
6 | CC(=O)SC(C[N+](=O)[O-])c1ccc2c(c1)OCO2 (stereo unspecified) | 14.4 µM (inactive) | 6.37 µM (inactive) | 7.83 µM (inactive) | 17.1 µM (inactive) | 6.56 µM (inactive) | 11.6 µM (inactive) | 5.46 µM (inactive) | 2.98 µM (inactive) | 14.2 µM (inactive) | 1.39 µM (inactive) | 2.49 µM (inactive) | 8.24 µM (inactive) | 3.15 µM (inactive) | 5.73 µM (inactive) | 3.64 µM (inactive) | 7.45 µM (inactive) | 6.19 µM (inactive) | 5.2 µM (inactive) | 3 µM (inactive) | 8.81 µM (inactive)
7 | c1csc(-c2ccc(-c3cccc4nsnc34)s2)c1 | 70.5 µM (inactive) | > 100 µM (inactive) | 71.1 µM (inactive) | 5.32 µM (inactive) | 35.8 µM (inactive) | > 100 µM (inactive) | > 100 µM (inactive) | 18.7 µM (inactive) | 62.1 µM (inactive) | 85.3 µM (inactive) |  | > 100 µM (inactive) | > 100 µM (inactive) | > 100 µM (inactive) | 39.5 µM (inactive) | > 100 µM (inactive) | > 100 µM (inactive) |  | 14.7 µM (inactive) | > 100 µM (inactive)
